According to patent US20240383852A1, “ANTI-VIRAL COMPOUNDS” (INFEX Therapeutics Limited, priority 2021, published 2024):
Where a name gives a salt, the structure may show the parent alone.

Key:
[1] = test system: human Hep G2 cells (ATCC HB-8065); assay: Cytotoxicity in Hep G2 cells (CellTiter-Glo); format: cell-based; details: Hep G2 cells, 100 μM test article, 24-hour exposure
SARS-CoV-2 PLpro = biological target: T1, SARS-CoV-2 PLpro (Severe acute respiratory syndrome coronavirus 2, UniProt P0DTD1); assay: biochemical; details: 60 nM papain-like protease, 50 μM Z-RLRGG-AMC, pH 7.5, 37° C.; read-out: SARS-CoV-2 PLpro IC50
T1 construct: containing 60 nM papain-like protease

SMILES	% Cell Viability [1] [%]	IC50 (SARS-CoV-2 PLpro) [µM]
Cc1ccc(N2CCN(C)CC2)cc1C(=O)N[C@H](C)c1ccc(N2CCNCC2)cc1 [Example 106, 2-Methyl-5-(4-methylpiperazin-1-yl)-N-[(1R)-1-(4-piperazin-1-ylphenyl)ethyl]benzamide]	87.4	< 5
Cc1ccc(N2C[C@H]3C[C@@H]2CN3C)cc1C(=O)N[C@H](C)c1cccc2c1OCO2 [Example 122, N-[(1R)-1-(1,3-benzodioxol-4-yl)ethyl]-2-methyl-5-[(1R,4R)-5-methyl-2,5-diazabicyclo[2.2.1]heptan-2-yl]benzamide]	95.4	< 5
COc1cc(-c2ccccc2)cc([C@@H](C)NC(=O)c2cc(N3CCN(C)CC3)ccc2C)c1 [Example 234, N-[(1R)-1-(3-Methoxy-5-phenyl-phenyl)ethyl]-2-methyl-5-(4-methylpiperazin-1-yl)benzamide]	0.9	< 2
Cc1ccc(N2CCN(C)CC2)cc1C(=O)N[C@H](C)c1cccc(-c2ccc(CO)s2)c1 [Example 79, N-[(1R)-1-[3-[5-(Hydroxymethyl)-2-thienyl]phenyl]ethyl]-2-methyl-5-(4-methylpiperazin-1-yl)benzamide]	52.9	< 2
Cc1ccc(N2CCN(C)CC2)cc1C(=O)N[C@H](C)c1cccc(CCC(=O)NCCO)c1 [Example 96, N-[(1R)-1-[3-[3-(2-Hydroxyethylamino)-3-oxo-propyl]phenyl]ethyl]-2-methyl-5-(4-methylpiperazin-1-yl)benzamide]	97.3	< 10
COc1ccc([C@@H](C)NC(=O)c2cc(N3CCN(C)CC3)ccc2C)cc1-c1cnn(CCO)c1 [Example 284, N-[(1R)-1-[3-[1-(2-Hydroxyethyl)pyrazol-4-yl]-4-methoxy-phenyl]ethyl]-2-methyl-5-(4-methylpiperazin-1-yl)benzamide]	101.3	< 2
COc1cc([C@@H](C)NC(=O)c2cc(N3C[C@H]4C[C@@H]3CN4C)ccc2C)ccc1OCC1CC1 [Example 297, N-[(1R)-1-[4-(Cyclopropylmethoxy)-3-methoxy-phenyl]ethyl]-2-methyl-5-[(1R,4R)-5-methyl-2,5-diazabicyclo[2.2.1]heptan-2-yl]benzamide]	61.1	< 2
CNC(=O)c1cccc(-c2cccc([C@@H](C)NC(=O)c3cc(N4CCN(C)CC4)ccc3C)c2)c1 [Example 46, 2-Methyl-N-[(1R)-1-[3-[3-(methylcarbamoyl)phenyl]phenyl]ethyl]-5-(4-methylpiperazin-1-yl)benzamide]	86.9	< 2
Cc1ccc(N2CCN(C)CC2)cc1C(=O)N[C@H](C)c1cccc(-c2ccc(N3CCN(CCC(=O)O)CC3)cc2)c1 [Example 165, 3-[4-[4-[3-[(1R)-1-[[2-Methyl-5-(4-methylpiperazin-1-yl)benzoyl]amino]ethyl]phenyl]phenyl]piperazin-1-yl]propanoic acid]	132	< 2
Cc1ccc(N2CCN(C)CC2)cc1C(=O)N[C@H](C)c1cccc(-c2cccc(C(=O)NCCN(C)C)c2)c1 [Example 94, N-[(1R)-1-[3-[3-[2-(Dimethylamino)ethylcarbamoyl]phenyl]phenyl]ethyl]-2-methyl-5-(4-methylpiperazin-1-yl)benzamide]	17.3	< 2
Cc1ccc(N2CCN(C)CC2)cc1C(=O)N[C@H](C)c1cccc(-c2cccc(C(=O)N3CCN(C)CC3)c2)c1 [Example 88, 2-Methyl-N-[(1R)-1-[3-[3-(4-methylpiperazine-1-carbonyl)phenyl]phenyl]ethyl]-5-(4-methylpiperazin-1-yl)benzamide]	78.8	< 2
Cc1ccc(N2CCN(C)CC2)cc1C(=O)N[C@H](C)c1cccc(-c2cc(CO)cc(CO)c2)c1 [Example 81, N-[(1R)-1-[3-[3,5-Bis(hydroxymethyl)phenyl]phenyl]ethyl]-2-methyl-5-(4-methylpiperazin-1-yl)benzamide]	94.4	< 2
Cc1ccc(N2CCN(C)CC2)cc1C(=O)N[C@H](C)c1cccc(-c2cccc(=O)[nH]2)c1 [Example 76, 2-Methyl-5-(4-methylpiperazin-1-yl)-N-[(1R)-1-[3-(6-oxo-1H-pyridin-2-yl)phenyl]ethyl]benzamide]	81.2	< 2
COc1cc(-c2cn(C)nc2C)cc([C@@H](C)NC(=O)c2cc(N3CCN4CCCC4C3)ccc2C)c1 (stereo partly drawn) [Example 256, 5-(3,4,6,7,8,8a-Hexahydro-1H-pyrrolo[1,2-a]pyrazin-2-yl)-N-[(1R)-1-[3-(1,3-dimethylpyrazol-4-yl)-5-methoxy-phenyl]ethyl]-2-methyl-benzamide]	70.1	< 2
CC(=O)N1CCN(c2cccc(C(=O)N[C@H](C)c3cccc4ccccc34)c2)CC1 [Example 159, 3-(4-Acetylpiperazin-1-yl)-N-[(1R)-1-(1-naphthyl)ethyl]benzamide]	81.5	> 100
Cc1ccc(N2CCN(C)CC2)cc1C(=O)N[C@H](C)c1ccc(OC(C)C)c(-c2cnn(C)c2)c1 [Example 250, N-[(1R)-1-[4-isopropoxy-3-(1-methylpyrazol-4-yl)phenyl]ethyl]-2-methyl-5-(4-methylpiperazin-1-yl)benzamide]	93.0	< 2
COCCN1CCN(c2ccc(C)c(C(=O)N[C@H](C)c3cccc(-c4cnn(C)c4)c3)c2)CC1 [Example 114, 5-[4-(2-Methoxyethyl)piperazin-1-yl]-2-methyl-N-[(1R)-1-[3-(1-methylpyrazol-4-yl)phenyl]ethyl]benzamide]	59.0	< 5
Cc1ccc(N2CCN(C)CC2)cc1C(=O)N[C@H](C)c1cccc(-c2cncnc2)c1 [Example 59, 2-Methyl-5-(4-methylpiperazin-1-yl)-N-[(1R)-1-(3-pyrimidin-5-ylphenyl)ethyl]benzamide]	86.0	< 10
Cc1ccc(N2CCN(C)CC2)cc1C(=O)N[C@H](C)c1cccc(-c2cccc(CCO)c2)c1 [Example 44, N-[(1R)-1-[3-[3-(2-Hydroxyethyl)phenyl]phenyl]ethyl]-2-methyl-5-(4-methylpiperazin-1-yl)benzamide]	61.0	< 2
COc1ccc([C@@H](C)NC(=O)c2cc(N3C[C@@H]4C[C@H]3CN4C)ccc2C)cc1OC [Example 12, N-[(1R)-1-(3,4-Dimethoxyphenyl)ethyl]-2-methyl-5-[(1S,4S)-5-methyl-2,5-diazabicyclo[2.2.1]heptan-2-yl]benzamide]	91.1	< 5
Cc1ccc(N2CCC(N)CC2)cc1C(=O)N[C@H](C)c1cccc2ccccc12 [Example 16, 5-(4-Amino-1-piperidyl)-2-methyl-N-[(1R)-1-(1-naphthyl)ethyl]benzamide]	1.1	< 5
Cc1ccc(N2CCN(C3COC3)CC2)cc1C(=O)N[C@H](C)c1cccc2ccccc12 [Example 117, 2-Methyl-N-[(1R)-1-(1-naphthyl)ethyl]-5-[4-(oxetan-3-yl)piperazin-1-yl]benzamide]	61.1	< 5
Cc1ccc(N2CCN(C)CC2)cc1C(=O)N[C@H](C)c1cccc(-c2cnn(C)c2)c1 [Example 53, 2-Methyl-5-(4-methylpiperazin-1-yl)-N-[(1R)-1-[3-(1-methylpyrazol-4-yl)phenyl]ethyl]benzamide]	82.4	< 2
COc1cc(-c2cn(C)nc2C)cc([C@@H](C)NC(=O)c2cc(N3CCNC4(CC4)C3)ccc2C)c1 [Example 267, 5-(4,7-Diazaspiro[2.5]octan-7-yl)-N-[(1R)-1-[3-(1,3-dimethylpyrazol-4-yl)-5-methoxy-phenyl]ethyl]-2-methyl-benzamide]	81.0	< 2
Cc1ccc(N2CCN(C)CC2)cc1C(=O)N[C@H](C)c1cccc2c1OCO2 [Example 33, N-[(1R)-1-(1,3-Benzodioxol-4-yl)ethyl]-2-methyl-5-(4-methylpiperazin-1-yl)benzamide hydrochloride salt]	95.5	< 10
Cc1ccc(N2CCN(CCCC(=O)O)CC2)cc1C(=O)N[C@H](C)c1cccc2ccccc12 [Example 172, 4-[4-[4-Methyl-3-[[(1R)-1-(1-naphthyl)ethyl]carbamoyl]phenyl]piperazin-1-yl]butanoic Acid]	104.6	< 2
COc1ccc([C@@H](C)NC(=O)c2cc(N3C[C@H]4C[C@@H]3CN4C)ccc2C)cc1-c1csc(C(=O)NC2CC2)c1 [Example 287, N-Cyclopropyl-4-[2-methoxy-5-[(1R)-1-[[2-methyl-5-[(1R,4R)-5-methyl-2,5-diazabicyclo[2.2.1]heptan-2-yl]benzoyl]amino]ethyl]phenyl]thiophene-2-carboxamide]	43.4	< 2
COc1cc(-c2cnn(C)c2)cc([C@@H](C)NC(=O)c2cc(C3CCN(C)CC3)ccc2C)c1 [Example 302, N-[(1R)-1-[3-Methoxy-5-(1-methylpyrazol-4-yl)phenyl]ethyl]-2-methyl-5-(1-methyl-4-piperidyl)benzamide]	67.1	< 2
Cc1ccc(N2CCN(C)CC2)cc1C(=O)N[C@H](C)c1ccc(Cl)c(Br)c1 [Example 201, N-[(1R)-1-(3-Bromo-4-chloro-phenyl)ethyl]-2-methyl-5-(4-methylpiperazin-1-yl)benzamide]	1.0	< 2
Cc1ccc(N2CCN(C)CC2)cc1C(=O)N[C@H](C)c1ccc(OCc2ccccc2)c(-c2cnn(C)c2)c1 [Example 249, N-[(1R)-1-[4-Benzyloxy-3-(1-methylpyrazol-4-yl)phenyl]ethyl]-2-methyl-5-(4-methylpiperazin-1-yl)benzamide]	0.5	< 2
